For test [1], the system named is ARR3-dependent activation of the JNK pathway. As to the kind of experiment: Suppression of ARR3-dependent JNK activation (peptide co-expressed with full-length ARR3, Western blot). In kind it is cell-based. To be noted: for JNK activity on co-expression with full-length ARR3, comparison of shorter peptides: Western blot. The source says: FIG. 9. The ARR3-derived T1A15 peptide is capable of reducing ARR3-dependent activation of the JNK pathway. (A) Dose-dependent action of Venus-T1A15 on the JNK activity. Upper blot panel—T1A15 was expressed at increasing concentration with full-length ARR3. Cells expressing GFP (negative control) and full-length ARR3 only (positive control) are shown for comparison. Note the reduced activity of HA-JNK3α2 expressed in the cells as well as that of endogenous INK isoforms (p54 and p46 bands). The lower panels show corresponding expression of GFP, full-length ARR3 and increasing concentrations of Venus-T1A15. (B) Comparison of the activity of shorter ARR3-derived peptides. Three shorter peptides, T1A15, T1A14, and T1A13, were co-expressed with full-length ARR3, and the INK activity assessed by western blot.
First, the action of arrestin-3-derived peptides expressed in cultured cells on JNK3 activity was investigated.
In general terms: A western blot detects proteins with antibodies after separation by electrophoresis.

The subject of test [2] is ASK1-MKK4/7-JNK3 signaling cascade. Description: In cell JNK3 activation assay (co-expression with HA-ASK1 and HA-JNK3α2, phospho-JNK Western blot). In kind it is cell-based, African green monkey. To be noted: for in cell JNK3α2 activation (phospho-JNK3 densitometry): Example 2, YFP/Venus constructs with HA-ASK1, HA-JNK3α2 in COS7 cells; for JNK3 phosphorylation in cells, HA-tagged arrestins and separated domains: co-expressed with ASK1 and JNK3 in COS7 cells. The procedure:
COS-7 African green monkey cells were maintained in DMEM supplemented with 10% heat-inactivated FBS (Invitrogen), penicillin, and streptomycin at 37° C. in a humidified incubator with 5% CO2. The cells were plated at 80-90% confluence and transfected using Lipofectamine 2000 (Invitrogen) according to the manufacturer's instructions. Cells were used 48 h post-transfection and serum-starved overnight before experiments.
COS-7 cells were incubated with phosphatase inhibitors (50 mM NaF and 10 mM Na3VO4) in serum-free medium for 15 min at 37° C.; washed with cold PBS; and lysed with SDS lysis buffer containing 1% SDS, 10 mM Tris (pH7.4), 10 mM NaF, 100 μM Na3VO4, 2 mM EDTA, 2 mM benzamidine and 1 mM PMSF. JNKs activity was assayed by Western blotting using an antibody specific for phosphorylated JNK to detect phosphorylated (active) JNKs^17,20,23. Whole cell lysates were boiled for 5 min and centrifuged at 10,000×g for 10 min, and the supernatants were used for Western blotting. Protein was measured using the Bio-Rad Coomassie Blue assay. The proteins were resolved on 8% SD S-PAGE and transferred to PVDF membrane (Millipore, Bedford, Mass.). Blots were incubated with the primary antibodies (Cell Signaling Technology, Inc) anti-phospho-JNK, anti-JNK, anti-HA (6E2) (1:1000 to 1:5000), followed by appropriate HRP-conjugated secondary antibodies. Protein bands were detected by enhanced chemiluminescence (ECL, Pierce), followed by exposure to x-ray film. To quantify phospho-JNKs, serial dilutions of anisomycin (1 μg/ml)-stimulated HEK-A cell lysates were used to ensure that all samples were in linear range. The values for these proteins are expressed in arbitrary units.
The JNK3 activation was next tested in cells (See FIG. 7). COS7 cells were transfected with HA-ASK1, HA-JNK3α2, and YFP-arrestin constructs to measure in cell JNK3α2 activation. Phospho-JNK3 is shown as the uppermost band in the Western analysis, and was analyzed by densitometric quantification using Quantity One software (quantification in bottom panel). […] The data were statistically analyzed by ANOVA with protein as the main factor. Significance of the difference from control (p values) is indicated.
In Cell JNK3 Activation Assay COS7 African green monkey cells were sustained in DMEM solution containing 10% heat-inactivated FBS (Invitrogen), penicillin, and streptomycin at 37° C. and 5% CO2. Cells were transfected at 90-100% confluency in 6-well plates with pcDNA3-HA-ASK1 (0.4 ug), pcDNA3-HA-JNK3α2 (0.2 ug), and pcDNA3-Venus arrestin constructs (0.2-0.6 ug) at a 1:2 ratio of DNA:Lipofectamine 2000 (Invitrogen). At 48 hrs post-transfection, the cells were incubated with phosphatase inhibitors (20 mM NaF and 1 mM Na3VO4) in PBS for 15 mins, washed twice with cold PBS, and lysed using 50 mM Tris (pH 7.8), 2 mM EDTA, 250 mM NaCl, 10% Glycerol, 0.5% NP-40, 2 mM benzamide, and 1 mM PMSF. Protein concentration was measured using the Bio-Rad Quick Start™ Bovine Serum Albumin (BSA) Standard Set. The proteins were subjected to 10% SDS-PAGE and transferred to PVDF membrane (Millipore, Bedford, Mass.). Membranes were incubated with respective primary antibodies (Cell Signaling Technology, Inc.) anti-ASK1 (#3762S), anti-phospho-JNK (#9251), anti-SAPK/JNK (#9252P), anti-GST (#2625), or anti-HA (#3724), followed by the appropriate HRP-conjugated secondary antibodies. Bands were detected by x-ray film using enhanced chemiluminescence (ECL, Pierce) and quantification was done using the software Quantity One (BioRad).

For a further test, the system named is WT hemiparkinsonian mice. Description: L-DOPA-induced rotations in hemiparkinsonian WT mice. In kind it is in vivo, mouse. The note with it: peptide expressed under CMV promoter in striatal neurons, versus GFP. The text has this: FIG. 11. Inhibition of L-DOPA-induced rotations in WT mice by ARR3-derived peptide T1A15 inhibiting JNK3. The arrestin-3-derived peptide T1A15 expressed under CMV promoter in striatal neurons inhibited rotations in WT mice as compared to WT mice expressing GFP.
(§1) The mice were rendered hemiparkinsonian by the unilateral injection of the dopaminergic neurotoxin 6-hydroxydopamine. Such animals develop contralateral rotations of increasing frequency in response to repeated administration of L-DOPA. ARR3 knockout mice (KO) have lower propensity than wild type (WT) animals to such rotations.

The test system of test [3] is hemiparkinsonian ARR3 KO mice. As to the kind of experiment: L-DOPA-induced rotations in hemiparkinsonian ARR3 KO mice. In kind it is in vivo, mouse. The procedure: FIG. 10. Rescue of L-DOPA-induced rotations in ARR3 KO mice by T1A16. Data are shown as means±S.E.M. Mice were pre-tested for L-DOPA-induced rotations before receiving lentiviruses. Respective lentiviruses were injected into the dorsolateral striatum of ARR3 KO mice. WT mice received GFP. […] In contrast, selective expression of T1A16 in striatopallidal MSNs under control of the enkephaline (ENK) promoter was ineffective. […] Significance levels are by Bonferroni post hoc test across all testing sessions.
Next, arrestin-3-derived peptides T1A16 and T1A15 were investigated for activity in the animal model of L-DOPA-induced dyskinesia. It was shown that the peptides expressed as Venus fusions in the motor striatum of hemiparkinsonian mice via lentivirus-mediated gene transfer modulate the manifestations of L-DOPA-induced dyskinesia (LID). The mice lacking ARR3 have reduced LID, and restoration of ARR3 into the motor striatum via lentivirus-mediated gene transfer rescues LID in these animals.
as §1

For another test, the target named is T1, MKK4 (Homo sapiens, UniProt P45985).
T1 sequence (P45985 1-399): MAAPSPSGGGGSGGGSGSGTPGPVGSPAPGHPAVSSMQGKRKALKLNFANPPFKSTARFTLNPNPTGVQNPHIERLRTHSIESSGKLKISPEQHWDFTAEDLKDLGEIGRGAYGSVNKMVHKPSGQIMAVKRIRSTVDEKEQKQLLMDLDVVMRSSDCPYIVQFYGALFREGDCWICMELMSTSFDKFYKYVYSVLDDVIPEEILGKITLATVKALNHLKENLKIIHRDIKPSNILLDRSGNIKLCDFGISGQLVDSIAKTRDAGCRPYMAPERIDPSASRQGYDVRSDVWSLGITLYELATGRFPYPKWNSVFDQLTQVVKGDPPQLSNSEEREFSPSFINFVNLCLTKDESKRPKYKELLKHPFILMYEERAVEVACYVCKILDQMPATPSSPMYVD
Description: MBP pull-down of purified MKK4. In kind it is binding. To be noted: MBP pull-down, purified proteins. The procedure:
T1A was expressed in E. coli as an MBP-fusion and purified it on an amylose column^23. The ability of purified GST-MKK4 or GST-MKK7 (FIG. 1A) to bind MBP-T1A immobilized on an amylose column was tested in an in vitro pull-down assay, where MBP and MBP-arrestin-3 served as negative and positive controls, respectively (FIG. 1B). MBP-T1A, but not control MBP, effectively retained both kinases (FIG. 1B). […] Next, it was tested whether T1A binds the uppermost kinase in the cascade, ASK1. Because ASK1 is not available in purified form, HA-tagged ASK1 and YFP-tagged T1A (using YFP as a control) were co-expressed in COS7 cells, lysed the cells, and immunoprecipitated YFP constructs with anti-GFP antibody (FIG. 1C).
To make MBP-fusions containing arrestin-2/3 elements, the cDNAs encoding arrestin fragments were subcloned into pMal-p2T (generous gift from Dr. Keiji Tanaka, Tokyo Institute of Medical Science) between Eco RI and Xho I sites in frame with MBP, as described^23. MBP-Arr3 (full-length arrestin-3) was created by subcloning the corresponding cDNA into pMal-p2T between Eco RI and Not I sites^23. All MBP-arrestin-3 fusion proteins contained the same […] (SEQ ID NO:29) linker between MBP and arrestin-3 or its fragments. The MBP protein used as negative control was purified using empty pMal-p2T vector containing the same linker with 10 additional residues: […] (SEQ ID NO:30). MBP fusions were purified, as described^23. MBP pull-down was performed, as described^23. Briefly, Indicated MBP fusions (10-30 μg in 50 μL 20 mM Tris/150 mM NaCl) were immobilized on amylose resin (25 μL, 50% slurry, New England Biolabs) for 1 h at 4° C. with slight rotation. Purified, as described^40, MKK4/7 (10 μg in 50 μL 20 mM Tris/150 mM NaCl) were added to the immobilized MBP fusions and rotated gently for 2 h at 4° C. Samples were transferred to centrifuge filters (Durapore®-PVDF-0.65 μm), washed three times with 50 mM HEPES-Na, pH 7.3, 150 mM NaCl. The proteins were eluted by 100 μl of elution buffer (wash buffer containing 50 mM maltose) by gentle rotation for 5 min at 4° C. Eluates were analyzed by SDS-PAGE and Western blotting.

For a further test, the target named is MKK4-JNK3 module (Homo sapiens, UniProt P45985+P53779). To be noted: previously found, reference 20; cited from earlier work.
A further test concerns the target MKK7-JNK3 module (Homo sapiens, UniProt O14733+P53779). The note with it: previously found, reference 20; cited from earlier work.

The source of these data is US10369187B2, “Peptide regulators of JNK family kinases” (Vanderbilt University, priority 2017, dated 2019).

MKK4-JNK3 module, sequence (P53779 whole entry, one chain of several): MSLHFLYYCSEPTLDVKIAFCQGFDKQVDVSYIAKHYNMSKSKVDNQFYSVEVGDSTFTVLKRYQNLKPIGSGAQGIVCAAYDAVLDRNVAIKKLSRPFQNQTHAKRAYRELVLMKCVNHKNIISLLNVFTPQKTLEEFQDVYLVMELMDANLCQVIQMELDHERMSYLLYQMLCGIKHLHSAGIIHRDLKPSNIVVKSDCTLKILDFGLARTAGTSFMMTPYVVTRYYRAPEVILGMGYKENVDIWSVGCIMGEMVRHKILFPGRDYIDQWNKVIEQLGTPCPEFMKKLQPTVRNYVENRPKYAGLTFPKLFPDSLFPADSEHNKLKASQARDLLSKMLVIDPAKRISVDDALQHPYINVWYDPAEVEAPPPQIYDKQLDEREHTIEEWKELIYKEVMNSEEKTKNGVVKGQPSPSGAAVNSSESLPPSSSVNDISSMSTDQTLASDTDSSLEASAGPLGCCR
MKK7-JNK3 module, sequence (O14733 whole entry): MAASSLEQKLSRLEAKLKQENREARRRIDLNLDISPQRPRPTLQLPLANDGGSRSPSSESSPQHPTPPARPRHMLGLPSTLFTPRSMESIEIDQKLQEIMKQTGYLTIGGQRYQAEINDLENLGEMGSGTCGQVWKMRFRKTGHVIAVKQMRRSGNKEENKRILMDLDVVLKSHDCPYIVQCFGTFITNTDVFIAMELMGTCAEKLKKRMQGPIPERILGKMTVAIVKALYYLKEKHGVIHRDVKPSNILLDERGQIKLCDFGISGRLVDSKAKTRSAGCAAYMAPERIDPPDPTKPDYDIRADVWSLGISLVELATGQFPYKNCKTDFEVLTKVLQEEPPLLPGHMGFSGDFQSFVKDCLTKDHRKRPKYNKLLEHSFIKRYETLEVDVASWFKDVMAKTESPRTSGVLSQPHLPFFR
MKK7-JNK3 module, sequence (P53779 whole entry): as the sequence (P53779 whole entry, one chain of several) above

Turning to KKSSPNCKLTVYLG (bovine) [T1A14], the “JNK activity on co-expression with full-length ARR3, comparison of shorter peptides” value (from here on “JNK activity on co-expression”) in test [1] was “marginally effective”.

As for TRVFKKSSPNCKLTV (bovine) [T1A15], the “in cell JNK3α2 activation (phospho-JNK3 densitometry)” value (shortened to “in cell JNK3α2 activation”) in test [2] is listed as “inhibit JNK3 activation”. Besides, the “ARR3-dependent JNK activation at increasing peptide expression” value in test [1] (Venus-T1A15 co-expressed with full-length ARR3) is “reducing arrestin-3-dependent activation of JNK3 as well as other JNK isoforms in a dose dependent manner”. The “JNK activity on co-expression” value in test [1] is on record as “effectively suppressed”. Also, the “L-DOPA-induced rotations in WT mice” value in the test on WT hemiparkinsonian mice is “able to suppress the rotational behavior”.

For the molecule VFKKSSPNCKLTV (bovine) [T1A13], the “JNK activity on co-expression” value in test [1] is “no effect”.

For VFKKSSPNCKLTVYLG (bovine) [T1A16], in test [2], the “in cell JNK3α2 activation” value is recorded as “facilitates JNK3 activation”. In addition, in test [2] (Example 3, T1A16-Venus expressed in Cos7 cells), the “JNK3 activation at increasing peptide expression” value was “dose-dependently activates JNK3”. Further, the “L-DOPA-induced rotations in ARR3 KO mice, expression in striatonigral MSNs” value in test [3] (lentivirus, dynorphine (DYN) promoter) was “fully rescued rotations in A3KO mice”. In test [3] (lentivirus, enkephaline (ENK) promoter), the “L-DOPA-induced rotations in ARR3 KO mice, expression in striatopallidal MSNs” value is reported as “ineffective”. For the same molecule, the “L-DOPA-induced rotations in ARR3 KO mice” value in test [3] (peptide expressed in striatum via lentivirus, 6-hydroxydopamine lesion) is “fully restores rotations in ARR3 KO mice to the level of that in WT mice”.

For “arrestin-3: full-length arrestin-3 (bovine) protein, scaffold of ASK1-MKK4/7-JNK3 cascade”, the “interaction with MKK4 compared with MKK7” value in the test with MKK4 is “stronger interaction with MKK4 than with MKK7”. Further, in test [2], the “in cell JNK3α2 activation” value was “facilitates JNK3 activation”; the “JNK3 phosphorylation in cells, HA-tagged arrestins and separated domains” value is on record as “significantly increases JNK3 phosphorylation in cells”. Also, in test [2] (YFP fusions co-expressed with JNK3 and ASK1 in COS7 cells), the “JNK3 phosphorylation in cells, YFP fusions” value is on record as “increased the level of JNK3 phosphorylation”. Moreover, in test [1], the “JNK activity on co-expression” value is listed as “induced the JNK activation”. In addition, the “optimal concentration for scaffolding MKK4-JNK3 module” value with MKK4-JNK3 module was approximately 0.6 µM. The “optimal concentration for scaffolding MKK7-JNK3 module” value in the test with MKK7-JNK3 module was approximately 6 µM.

B1: arrestin-2: full-length non-visual arrestin-2 protein, does not promote JNK3 activation (protein, UniProt P17870 1-418, looked up)
chain: MGDKGTRVFKKASPNGKLTVYLGKRDFVDHIDLVEPVDGVVLVDPEYLKERRVYVTLTCAFRYGREDLDVLGLTFRKDLFVANVQSFPPAPEDKKPLTRLQERLIKKLGEHAYPFTFEIPPNLPCSVTLQPGPEDTGKACGVDYEVKAFCAENLEEKIHKRNSVRLVIRKVQYAPERPGPQPTAETTRQFLMSDKPLHLEASLDKEIYYHGEPISVNVHVTNNTNKTVKKIKISVRQYADICLFNTAQYKCPVAMEEADDTVAPSSTFCKVYTLTPFLANNREKRGLALDGKLKHEDTNLASSTLLREGANREILGIIVSYKVKVKLVVSRGGLLGDLASSDVAVELPFTLMHPKPKEEPPHREVPEHETPVDTNLIELDTNDDDIVFEDFARQRLKGMKDDKEEEEDGTGSPRLNDR
modifications: full-length
For the molecule B1, the “JNK3 phosphorylation in cells, HA-tagged arrestins and separated domains” value in test [2] is recorded as “does not”.
